In patent US20240238292A1, “TREATMENT OF INFECTIONS IN AND AROUND THE EYE” (UNIVERSITY OF MIAMI, priority 2021, published 2024):

Tests used:
[1] = tested on: Demodex; experiment: Ex vivo treatment of Demodex on epilated lashes, kill time; conditions: lashes immersed in 1-2 drops, time to cessation of all movement for minimum 60 seconds, examined every four hours
Description: Epilated lashes from an individual with confirmed Demodex infection were mounted onto six slides and covered with a coverslip. The lashes were then immersed in 1-2 drops of treatment solution (50 mg/mL 5-FU, 5 mg/mL 5-FU, or balanced salt solution as a control (2 slides each)). The slides were examined under a microscope (at magnifications ranging from 20-40×) every four hours. The kill time was defined as the elapsed time between the addition of test solution and all cessation of movement of the body, legs, mouth and pedipalps for a minimum of 60 seconds. The kill time for Demodex-infested lashes immersed in 5 mg/mL of 5-FU, 50 mg/mL of 5-FU, and control were 32 hours, 44 hours, and 72 hours, respectively.

[2] = tested on: Demodex; experiment: Clinical treatment of Demodex blepharitis with topical 5-FU 1%; assay type: in vivo, human
Description: The diagnosis of ocular demodicosis was based on clinical examination and confirmed by lash sampling and identification of microscopic mites. Lashes with cylindrical dandruff (CD), (scales that form clear cuffs collaring the lash root) were specifically selected for epilation. External slit lamp photos of both eyes of each individual were taken prior to and after initiation of 5-FU treatment. […] Patients were treated with 5-FU in a cyclical fashion (one week of topical 5-FU 1% application 4 times per day in the affected eye(s) followed by a 3-week holiday comprised one cycle).

[3] = tested on: Demodex; experiment: Clinical treatment of Demodex infestation with topical mitomycin C; assay type: in vivo, human; conditions: patient with conjunctival melanoma and heavy Demodex infestation, after 2 cycles

SMILES	kill time ([1]; 5 mg/mL 5-FU)	kill time ([1]; 50 mg/mL 5-FU)	CDs (cylindrical dandruff) and inflammation ([2]; one individual with bilateral 5-FU treatment, both eyes compared to pre-treatment)	collarettes and lid inflammation by clinical examination ([2]; topical 5-FU 1% 4 times per day one week, 3-week holiday per cycle, at least 2 cycles, treated eyes compared to untreated eye)	lash collarettes [3]
O=c1[nH]cc(F)c(=O)[nH]1 [5-FU, 5-fluorouracil]	32 h	44 h	reduction in CDs and inflammation	reduction in collarettes and lid inflammation	–
CO[C@@]12[C@H](COC(N)=O)C3=C(C(=O)C(C)=C(N)C3=O)N1C[C@@H]1N[C@@H]12 [mitomycin C]	–	–	–	–	dramatic reduction in lash collarettes
